Assay [1] addresses isolated recombinant JAK1 kinase domain (Homo sapiens (Human), UniProt P23458). The assay can be described thus: JAK1 enzyme assay (Caliper LabChip, peptide phosphorylation). Format: biochemical. The conditions noted are these: isolated recombinant JAK1 kinase domain, 25 μM ATP.
For assay [2], the target named is isolated recombinant JAK2 kinase domain (Homo sapiens (Human), UniProt O60674). Nature of the assay: JAK2 enzyme assay (Caliper LabChip, peptide phosphorylation). It is filed as biochemical. The conditions noted are these: 25 μM ATP.
isolated recombinant JAK2 kinase domain, sequence (O60674 849-1124): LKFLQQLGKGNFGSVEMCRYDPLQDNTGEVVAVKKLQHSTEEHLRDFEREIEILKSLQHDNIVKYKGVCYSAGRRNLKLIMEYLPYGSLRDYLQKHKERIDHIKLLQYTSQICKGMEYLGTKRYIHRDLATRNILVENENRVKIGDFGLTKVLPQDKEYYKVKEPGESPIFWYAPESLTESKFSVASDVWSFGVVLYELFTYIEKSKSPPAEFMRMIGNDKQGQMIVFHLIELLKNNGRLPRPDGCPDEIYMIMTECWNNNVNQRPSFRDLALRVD
For assay [3], the system named is JAK1-dependent STAT6 phosphorylation downstream of IL-13 stimulation in TF-1 human erythroleukemia cells. Nature of the assay: JAK1 pathway assay in TF-1 cells (IL-13-pSTAT6, MSD). The conditions noted are these: Homo sapiens, TF-1, TF-1 cells, read-out: IL13-pSTAT6 EC50_TF-1. It is filed as cell-based. Put shortly:
(§1)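 TF-1 cells are starved of GM-CSF overnight and run in serum-free medium, while BEAS-2B cells stay in complete growth medium. Inhibition of STAT6 phosphorylation is measured by MSD.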

For assay [4], the system named is JAK1-dependent STAT6 phosphorylation downstream of IL-13 stimulation in BEAS-2B human bronchial epithelial cells. Nature of the assay: JAK1 pathway assay in BEAS-2B cells (IL-13-pSTAT6, MSD). The conditions noted are these: read-out: IL13-pSTAT6 EC50 (uM)_BEAS-2B. It is filed as cell-based. A digest of the protocol: as §1

The record followed here is US9346815B2, “5-chloro-2-difluoromethoxyphenyl pyrazolopyrimidine compounds, compositions and methods of use thereof” (Genentech, Inc., priority 2014, dated 2016).

Each structure is given as a SMILES string.

isolated recombinant JAK1 kinase domain, sequence (P23458 875-1153): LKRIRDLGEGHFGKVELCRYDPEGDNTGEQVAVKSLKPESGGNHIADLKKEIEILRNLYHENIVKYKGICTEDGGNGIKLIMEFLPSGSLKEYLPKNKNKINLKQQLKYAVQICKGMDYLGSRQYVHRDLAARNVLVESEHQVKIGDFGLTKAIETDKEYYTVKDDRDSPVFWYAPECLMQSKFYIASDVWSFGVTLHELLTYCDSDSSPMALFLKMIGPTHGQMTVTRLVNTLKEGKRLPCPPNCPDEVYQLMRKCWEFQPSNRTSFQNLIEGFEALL

Turning to `CN(CCC#N)C1CCN(c2nc(-c3cc(Cl)ccc3OC(F)F)c(NC(=O)c3cnn4cccnc34)s2)CC1` [Example 189, Pyrazolo[1,5-a]pyrimidine-3-carboxylic acid (4-(5-chloro-2-difluoromethoxy-phenyl)-2-{4-[(2-cyano-ethyl)-methyl-amino]-piperidin-1-yl}-thiazol-5-yl)-amide], the Ki (commonly a measure of affinity in units of concentration, obtained from inhibition or displacement) in assay [1] was determined as 2.59 nM; in assay [2] it was 1.61 nM. Besides, the figures for the EC50 in assay [3] and in assay [4] were 5.3 nM and 0.02 µM, respectively.

With `O=C(Nc1cn(CC(=O)N2C[C@H]3CN(CC4CCC(F)(F)CC4)C[C@H]3C2)nc1-c1cc(Cl)ccc1OC(F)F)c1cnn2cccnc12` [Example 33, N-[1-[2-[(3aR,6aS)-2-[(4,4-difluoro-cyclohexyl)methyl]-1,3,3a,4,6,6a-hexahydropyrrolo[3,4-c]pyrrol-5-yl]-2-oxo-ethyl]-3-[5-chloro-2-(difluoromethoxy)phenyl]pyrazol-4-yl]pyrazolo[1,5-a]pyrimidine-3-carboxamide], the Ki in assay [1] was found to be 0.66 nM; in assay [2] it was 0.49 nM. For the same compound, the EC50 in assay [3] was found to be 6.2 nM; in assay [4], 0.0485 µM.

On to `NC1CCN(C(=O)Cn2cc(NC(=O)c3cnn4cccnc34)c(-c3cc(Cl)ccc3OC(F)F)n2)CC1` [Example 66, N-[1-[2-(4-amino-1-piperidyl)-2-oxo-ethyl]-3-[5-chloro-2-(difluoromethoxy)phenyl]pyrazol-4-yl]pyrazolo[1,5-a]pyrimidine-3-carboxamide], for which the inhibition constant (Ki) in assay [1] amounted to 0.58 nM. Also, the EC50 in assay [3] stood at 35.6 nM; in assay [4] it was 0.335 µM.

In the case of `CN(CC1(C#N)CCCCC1)C1CCN(C(=O)C2CCN(c3nc(-c4cc(Cl)ccc4OC(F)F)c(NC(=O)c4cnn5cccnc45)s3)CC2)CC1` [Example 204, N-[4-[5-chloro-2-(difluoromethoxy)phenyl]-2-[4-[4-[(1-cyanocyclohexyl)methyl-methyl-amino]piperidine-1-carbonyl]-1-piperidyl]thiazol-5-yl]pyrazolo[1,5-a]pyrimidine-3-carboxamide], the inhibition constant (Ki) in assay [1] came to 2 nM; in assay [2], 1.41 nM. Besides, the EC50 in assay [3] amounted to 7.9 nM; in assay [4], 0.172 µM.

`CN(C)CC1CCN(c2nc(-c3cc(Cl)ccc3OC(F)F)c(NC(=O)c3cnn4cccnc34)s2)CC1` [Example 190, N-[4-[5-chloro-2-(difluoromethoxy)phenyl]-2-[4-[(dimethylamino)methyl]-1-piperidyl]thiazol-5-yl]pyrazolo[1,5-a]pyrimidine-3-carboxamide]: the values for the Ki in assay [1] and in assay [2] were 2.69 nM and 2.02 nM, respectively. Further, the EC50 stood at 14.6 nM in assay [3] and 0.0098 µM in assay [4].

Take `O=C(Cn1cc(NC(=O)c2cnn3cccnc23)c(-c2cc(Cl)ccc2OC(F)F)n1)NCC1(CO)CC1` [Example 291, N-[3-[5-chloro-2-(difluoromethoxy)phenyl]-1-[2-[[1-(hydroxy-methyl)cyclopropyl]methylamino]-2-oxo-ethyl]pyrazol-4-yl]pyrazolo[1,5-a]pyrimidine-3-carboxamide]: the Ki in assay [1] stood at 0.54 nM; in assay [2] it was 0.55 nM. For the same compound, the EC50 in assay [3] turned out to be 3.6 nM; in assay [4], 0.0317 µM.

Turning to `Nc1nn2cccnc2c1C(=O)Nc1cn([C@H]2C[C@@H](N)C2)nc1-c1cc(Cl)ccc1OC(F)F` [Example 297, 2-Amino-pyrazolo[1,5-a]pyrimidine-3-carboxylic acid [1-(3-amino-cyclobutyl)-3-(5-chloro-2-difluoromethoxy-phenyl)-1H-pyrazol-4-yl]-amide], the Ki in assay [1] is 0.32 nM; in assay [2], 0.07 nM. Moreover, the figures for the EC50 in assay [3] and in assay [4] were 7.1 nM and 0.0308 µM, respectively.

As for `CC(C)CN1CCC2(CCN(C(=O)Cn3cc(NC(=O)c4cnn5cccnc45)c(-c4cc(Cl)ccc4OC(F)F)n3)CC2)C1` [Example 225, N-[3-[5-chloro-2-(difluoromethoxy)phenyl]-1-[2-(2-isobutyl-2,8-diazaspiro[4.5]decan-8-yl)-2-oxo-ethyl]pyrazol-4-yl]pyrazolo[1,5-a]pyrimidine-3-carboxamide], the inhibition constant Ki in assay [1] was determined as 0.39 nM; in assay [2], 1.29 nM. Besides, the EC50 in assay [3] came to 5 nM; in assay [4], 0.0423 µM.

With `CN[C@@H]1CCC[C@H](n2cc(NC(=O)c3c(N)nn4cccnc34)c(-c3cc(Cl)ccc3OC(F)F)n2)C1` [Example 296, 2-amino-N-[3-[5-chloro-2-(difluoromethoxy)phenyl]-1-[(1S,3R)-3-(methylamino)cyclohexyl]pyrazol-4-yl]pyrazolo[1,5-a]pyrimidine-3-carboxamide], the figures for the Ki in assay [1] and in assay [2] were 0.26 nM and 0.21 nM, respectively. The EC50 in assay [3] came out at 5.6 nM; in assay [4], 0.0283 µM.

As for `CCOC(=O)CNCCn1cc(NC(=O)c2cnn3cccnc23)c(-c2cc(Cl)ccc2OC(F)F)n1` [Example 306, Ethyl 2-[(2-[3-[5-chloro-2-(difluoromethoxy)phenyl]-4-[pyrazolo[1,5-a]pyrimidine-3-amido]-1H-pyrazol-1-yl]ethyl)amino]acetate], the Ki in assay [1] came out at 1.15 nM; in assay [2] it was 0.54 nM. The results for the EC50 in assay [3] and in assay [4] were 6.2 nM and 0.0659 µM, respectively.

As for `CN(CCCc1ccccc1)C1CCN(C(=O)Cn2cc(NC(=O)c3cnn4cccnc34)c(-c3cc(Cl)ccc3OC(F)F)n2)CC1` [Example 123, N-[3-[5-chloro-2-(difluoromethoxy)phenyl]-1-[2-[4-[methyl(3-phenylpropyl)amino]-1-piperidyl]-2-oxo-ethyl]pyrazol-4-yl]pyrazolo[1,5-a]pyrimidine-3-carboxamide], the Ki in assay [1] stood at 2.23 nM; in assay [2] it was 1.63 nM. The values for the EC50 in assay [3] and in assay [4] were 7.6 nM and 0.0487 µM, respectively.

Regarding `O=C(Nc1cn(CC(=O)N2CCCCC2)nc1-c1cc(Cl)ccc1OC(F)F)c1cnn2cccnc12` [Example 308, N-[3-[5-chloro-2-(difluoromethoxy)phenyl]-1-[2-oxo-2-(1-piperidyl)ethyl]pyrazol-4-yl]pyrazolo[1,5-a]pyrimidine-3-carboxamide], in assay [2], the Ki was found to be 0.55 nM. Also, the EC50 was determined as 1.5 nM in assay [3] and 0.0236 µM in assay [4].

Consider `CN(C)C1CCN(c2nc(-c3cc(Cl)ccc3OC(F)F)c(NC(=O)c3cnn4cccnc34)s2)CC1` [Example 188, Pyrazolo[1,5-a]pyrimidine-3-carboxylic acid [4-(5-chloro-2-difluoromethoxy-phenyl)-2-(4-dimethylamino-piperidin-1-yl)-thiazol-5-yl]-amide], for which the Ki in assay [1] stood at 1.26 nM. Also, the EC50 in assay [3] was found to be 5.8 nM; in assay [4] it was 0.0349 µM.

For `COCCN1CCN(C(=O)Cn2cc(NC(=O)c3cnn4cccnc34)c(-c3cc(Cl)ccc3OC(F)F)n2)CC1` [Example 229, N-[3-[5-chloro-2-(difluoromethoxy)phenyl]-1-[2-[4-(2-methoxyethyl)piperazin-1-yl]-2-oxo-ethyl]pyrazol-4-yl]pyrazolo[1,5-a]pyrimidine-3-carboxamide], the Ki in assay [1] stood at 0.38 nM. The figures for the EC50 in assay [3] and in assay [4] were 3.3 nM and 0.0516 µM, respectively.
